Experimental data published in ChEMBL document CHEMBL3297733, “Discovery and optimization of pyrrolo[1,2-a]pyrazinones leads to novel and selective inhibitors of PIM kinases” (Bioorg Med Chem, 2013).

Tests used:
[1] = target: Serine/threonine-protein kinase pim-2 (Homo sapiens, UniProt Q9P1W9); experiment: Inhibition of human PIM2 using ARK-RERTYSFGHHA as substrate incubated for 60 mins prior to substrate addition by topcount scintillation counting analysis in presence of [P33gamma]-ATP
[2] = Cytotoxicity against mouse BA/F3 cells overexpressing PIM1 after 72 hrs by CellTitre-Glo assay; type: functional, cell-based; conditions: BaF3, 72 h
[3] = target: Serine/threonine-protein kinase pim-1 (Homo sapiens, UniProt P11309); experiment: Inhibition of human PIM1 using ARK-RERTYSFGHHA as substrate incubated for 60 mins prior to substrate addition by topcount scintillation counting analysis in presence of [P33gamma]-ATP
[4] = Apparent permeability from apical to basolateral side in human Caco2 cells after 120 mins by LC-MS/MS analysis; conditions: Caco-2
[5] = Intrinsic clearance in human liver microsomes after 5 mins by LC-MS/MS analysis; type: ADME; conditions: read-out: CLH
[6] = Apparent permeability by PAMPA; type: physicochemical
[7] = Thermodynamic aqueous solubility of the compound at pH 7; type: physicochemical; conditions: buffer
[8] = target: Platelet-derived growth factor receptor (Homo sapiens, UniProt P09619+P16234); experiment: Inhibition of PDGFR (unknown origin); type: protein-complex assay
Casein kinase II = Casein kinase II (Homo sapiens, UniProt P19784+P67870+P68400); experiment: Inhibition of CK2 (unknown origin); type: protein-complex assay
[9] = target: Glycogen synthase kinase-3 beta (Homo sapiens, UniProt P49841); experiment: Inhibition of GSK3beta (unknown origin)
[10] = target: Cyclin-dependent kinase 2 (Homo sapiens, UniProt P24941); experiment: Inhibition of CDK2 (unknown origin)
[11] = target: Cell division cycle 7-related protein kinase (Homo sapiens, UniProt O00311); experiment: Inhibition of CDC7 (unknown origin)
Cell division cycle 7-related protein kinase, sequence (O00311 whole entry): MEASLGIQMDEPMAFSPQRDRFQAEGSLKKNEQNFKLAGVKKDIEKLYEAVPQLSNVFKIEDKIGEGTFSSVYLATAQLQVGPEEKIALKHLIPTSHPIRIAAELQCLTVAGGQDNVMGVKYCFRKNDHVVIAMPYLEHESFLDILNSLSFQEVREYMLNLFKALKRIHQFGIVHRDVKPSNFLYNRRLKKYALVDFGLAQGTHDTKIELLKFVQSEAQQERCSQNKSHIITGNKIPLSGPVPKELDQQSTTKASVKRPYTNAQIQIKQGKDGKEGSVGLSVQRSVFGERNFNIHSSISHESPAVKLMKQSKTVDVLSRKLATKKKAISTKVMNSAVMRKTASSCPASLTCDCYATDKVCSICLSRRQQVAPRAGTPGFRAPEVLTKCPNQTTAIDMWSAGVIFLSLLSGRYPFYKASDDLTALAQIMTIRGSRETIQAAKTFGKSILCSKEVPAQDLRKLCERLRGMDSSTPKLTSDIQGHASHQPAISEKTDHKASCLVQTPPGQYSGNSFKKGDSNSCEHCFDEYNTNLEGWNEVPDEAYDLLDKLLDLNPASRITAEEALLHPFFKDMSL

Serine/threonine-protein kinase pim-1, sequence (P11309 whole entry): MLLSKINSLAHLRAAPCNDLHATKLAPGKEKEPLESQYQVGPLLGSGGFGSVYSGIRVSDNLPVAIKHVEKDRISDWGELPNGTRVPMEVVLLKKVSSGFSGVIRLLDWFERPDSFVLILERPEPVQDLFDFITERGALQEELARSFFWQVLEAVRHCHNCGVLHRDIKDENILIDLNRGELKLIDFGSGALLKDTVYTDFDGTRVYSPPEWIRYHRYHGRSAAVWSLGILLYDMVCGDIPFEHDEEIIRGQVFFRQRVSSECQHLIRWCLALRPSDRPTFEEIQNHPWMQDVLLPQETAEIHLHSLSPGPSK
Serine/threonine-protein kinase pim-2, sequence (Q9P1W9 whole entry): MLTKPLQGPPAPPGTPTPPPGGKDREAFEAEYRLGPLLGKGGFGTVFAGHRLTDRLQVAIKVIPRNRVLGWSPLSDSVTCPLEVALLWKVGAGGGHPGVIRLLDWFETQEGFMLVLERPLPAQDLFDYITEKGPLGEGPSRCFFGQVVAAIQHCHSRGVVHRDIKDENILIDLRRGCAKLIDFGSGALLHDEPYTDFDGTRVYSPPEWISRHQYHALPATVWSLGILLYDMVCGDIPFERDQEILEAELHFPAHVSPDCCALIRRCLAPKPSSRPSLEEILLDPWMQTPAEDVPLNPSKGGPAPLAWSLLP
Glycogen synthase kinase-3 beta, sequence (P49841 whole entry): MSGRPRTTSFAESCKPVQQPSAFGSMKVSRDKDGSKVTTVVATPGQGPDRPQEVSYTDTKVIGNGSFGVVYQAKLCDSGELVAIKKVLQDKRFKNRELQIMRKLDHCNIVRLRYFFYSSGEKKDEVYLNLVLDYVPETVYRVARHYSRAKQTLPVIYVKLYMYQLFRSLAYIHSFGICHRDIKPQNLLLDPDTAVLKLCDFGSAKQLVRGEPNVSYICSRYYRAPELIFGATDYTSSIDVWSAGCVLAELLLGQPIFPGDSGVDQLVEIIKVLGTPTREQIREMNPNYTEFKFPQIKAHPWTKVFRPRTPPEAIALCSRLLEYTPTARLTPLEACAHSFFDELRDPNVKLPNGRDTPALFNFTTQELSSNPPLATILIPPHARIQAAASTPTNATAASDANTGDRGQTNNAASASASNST
Casein kinase II, sequence (P67870 whole entry): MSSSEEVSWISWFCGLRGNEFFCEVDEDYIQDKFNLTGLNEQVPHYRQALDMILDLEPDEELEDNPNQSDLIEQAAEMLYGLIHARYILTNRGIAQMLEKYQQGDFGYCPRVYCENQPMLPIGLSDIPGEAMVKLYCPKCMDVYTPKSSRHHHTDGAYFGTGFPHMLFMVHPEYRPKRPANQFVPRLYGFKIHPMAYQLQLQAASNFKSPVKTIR
Casein kinase II, sequence (P68400 whole entry): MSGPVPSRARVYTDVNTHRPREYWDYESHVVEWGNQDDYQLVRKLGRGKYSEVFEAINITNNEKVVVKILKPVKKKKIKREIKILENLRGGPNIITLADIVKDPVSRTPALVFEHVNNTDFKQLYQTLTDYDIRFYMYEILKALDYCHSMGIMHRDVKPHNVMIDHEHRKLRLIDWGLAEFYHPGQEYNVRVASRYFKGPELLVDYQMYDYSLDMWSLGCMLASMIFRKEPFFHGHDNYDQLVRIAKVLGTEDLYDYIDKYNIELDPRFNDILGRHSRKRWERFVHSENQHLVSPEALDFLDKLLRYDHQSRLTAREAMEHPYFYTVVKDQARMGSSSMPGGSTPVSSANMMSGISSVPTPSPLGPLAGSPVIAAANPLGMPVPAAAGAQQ
Casein kinase II, sequence (P19784 whole entry): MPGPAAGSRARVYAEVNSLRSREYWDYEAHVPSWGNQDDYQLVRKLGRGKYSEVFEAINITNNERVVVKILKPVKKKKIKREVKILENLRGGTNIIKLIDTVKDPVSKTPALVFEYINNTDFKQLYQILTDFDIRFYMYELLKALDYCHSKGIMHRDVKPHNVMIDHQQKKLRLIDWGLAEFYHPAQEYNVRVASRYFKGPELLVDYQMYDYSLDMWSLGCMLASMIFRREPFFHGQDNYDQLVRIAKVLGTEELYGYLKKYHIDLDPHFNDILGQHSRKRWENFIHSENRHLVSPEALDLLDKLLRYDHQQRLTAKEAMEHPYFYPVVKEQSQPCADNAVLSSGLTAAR

Compound | IC50 [3] [nM] | Papp A→B at 2 h [4] [×10⁻⁶ cm/s] | CLint scaled [5] [mL/min/kg] | IC50 [2] [nM] | also measured
O=C(CC1CNC(=O)c2cc(-c3cccc(C(F)(F)F)c3)cn21)NCC1CCCCC1 (racemic) | 375 |  |  |  | 
O=C(CC1CNC(=O)c2cc(-c3cccc(F)c3)cn21)NCC1CCCCC1 (racemic) |  | 11.2 | 48.5 | 1110 | 
O=C(CC1CNC(=O)c2cc(-c3cccc(C(F)(F)F)c3)cn21)NCC1CCOCC1 (racemic) | 838 |  |  |  | IC50 [1]: 3130 nM
CC(C)(C)CNC(=O)CC1CNC(=O)c2cc(-c3ccc(OC(F)(F)F)cc3)cn21 (racemic) | > 10000 |  |  |  | 
C[C@@H](CN1CCN(C)CC1)NC(=O)C[C@H]1CNC(=O)c2cc(-c3cccc(Cl)c3)cn21 | 530 |  |  |  | IC50 [1]: > 5000 nM
CC(C)(C)CNC(=O)CC1CNC(=O)c2cc(-c3ccsc3)cn21 (racemic) |  |  | 81 |  | Papp [6]: 48 ×10⁻⁶ cm/s; Therm_solubility [7]: 68 mg/mL; IC50 [8]: > 10000 nM; IC50 (Casein kinase II): > 10000 nM
CC(C)(C)CNC(=O)CC1CNC(=O)c2cc(-c3ccc(F)cc3)cn21 (racemic) | 2550 |  |  |  | 
O=C(C[C@H]1CNC(=O)c2cc(-c3cccc(F)c3)cn21)N[C@H](CO)Cc1ccccc1 | 141 | 1.3 | 87.8 | 3050 | 
O=C(CC1CNC(=O)c2cc(-c3ccc(F)c(F)c3)cn21)NCc1ccco1 (racemic) | 125 |  |  | 3640 | 
CC(C)(C)CNC(=O)CC1CNC(=O)c2cc(-c3cccc(C(F)(F)F)c3)cn21 (racemic) | 521 |  |  |  | 
Cc1ccc(Cl)cc1-c1cc2n(c1)C(CC(=O)NCc1ccco1)CNC2=O (racemic) | > 5000 |  |  |  | IC50 [1]: > 5000 nM
CN(C)C1CCN(C[C@@H](NC(=O)C[C@H]2CNC(=O)c3cc(-c4cccc(Cl)c4)cn32)C2CCCCC2)CC1 |  | 1.01 | 5 | 480 | 
CC(C)(C)CNC(=O)CC1CNC(=O)c2cc(-c3ccncc3)cn21 (racemic) | 5470 |  |  |  | IC50 [9]: 4610 nM
O=C(CC1CNC(=O)c2cc(-c3cccc(C(F)(F)F)c3)cn21)NCc1cccc(F)c1 (racemic) | 614 |  |  |  | 
CN1CCN(C(=O)C[C@H]2CNC(=O)c3cc(-c4cccc(F)c4)cn32)[C@@H](c2ccccc2)C1 | 233 |  |  |  | 
CC(C)(C)CNC(=O)CC1CNC(=O)c2cc(-c3ccccc3)cn21 (racemic) | 2540 |  |  |  | 
CN1CCN(C[C@@H](NC(=O)C[C@H]2CNC(=O)c3cc(-c4cc(Cl)ccc4F)cn32)C2CCCCC2)CC1 |  |  |  | 147 | 
CC(C)(C)CNC(=O)CC1CNC(=O)c2cc(-c3cccc(F)c3)cn21 (racemic) | 1940 |  |  |  | 
CC(C)(C)CNC(=O)CC1CNC(=O)c2cc(-c3cccc(OC(F)(F)F)c3)cn21 (racemic) | 1270 |  |  |  | 
CC(C)(C)CNC(=O)CC1CNC(=O)c2cc(-c3ccccc3F)cn21 (racemic) | 1720 |  |  |  | 
O=C(CC1CNC(=O)c2cc(-c3cn[nH]c3)cn21)NCc1cccc(F)c1 (racemic) | 1100 |  |  |  | IC50 [10]: 60 nM; IC50 [11]: 284 nM; IC50 [9]: 386 nM
O=C(CC1CNC(=O)c2cc(-c3cccc(Cl)c3)cn21)NCc1ccco1 (racemic) |  | 33.1 | 97.4 | 2430 | 
O=C(CC1CNC(=O)c2cc(-c3cc(Cl)ccc3F)cn21)NCc1ccco1 (racemic) | 132 |  |  |  | IC50 [1]: 2410 nM
NC[C@@H](NC(=O)C[C@H]1CNC(=O)c2cc(-c3ccnc(F)c3)cn21)c1ccccc1 |  | 0.9 | 6.5 | > 10000 | 

More lines, in order of falling IC50 [3], values ahead:

IC50 [3] [nM] | Papp A→B at 2 h [4] [×10⁻⁶ cm/s] | CLint scaled [5] [mL/min/kg] | Compound | IC50 [2] [nM] | also measured
124 | 11.9 | 400 | O=C(CC1CNC(=O)c2cc(-c3ccccc3F)cn21)NCC1CCCCC1 (racemic) | 1790 | 
94 | 11.8 | 400 | O=C(CC1CNC(=O)c2cc(-c3ccc(F)c(F)c3)cn21)NCC1CCCCC1 (racemic) | 1270 | 
87 | 2.7 | 55 | O=C(C[C@H]1CNC(=O)c2cc(-c3cccc(F)c3)cn21)N[C@H](CO)c1ccccc1 | 3720 | 
33 | 0.9 | 197 | O=C(CC1CNC(=O)c2cc(-c3ccnc(Cl)n3)cn21)NCC1CCCCC1 (racemic) | > 5000 | IC50 [1]: 1320 nM
26 |  |  | CN1CCN(C[C@@H](NC(=O)C[C@H]2CNC(=O)c3cc(-c4ccc(F)c(F)c4)cn32)C2CCCCC2)CC1 | 156 | IC50 [1]: 250 nM
16 | 1.1 | 14.6 | O=C(C[C@H]1CNC(=O)c2cc(-c3cccc(F)c3)cn21)N[C@H](CO)C1CCCCC1 | 1530 | 
13 | 0.33 |  | CN1CCN(C[C@@H](NC(=O)C[C@H]2CNC(=O)c3cc(-c4ccnc(F)c4)cn32)C2CCCCC2)CC1 | 2480 | IC50 [1]: 95 nM
12 | 0.8 | 10.1 | NC[C@@H](NC(=O)C[C@H]1CNC(=O)c2cc(-c3cccc(F)c3)cn21)C1CCCCC1 | > 10000 | IC50 [1]: 275 nM
10 | 0.6 | 8.3 | NC[C@@H](NC(=O)C[C@H]1CNC(=O)c2cc(-c3cccc(F)c3)cn21)c1ccccc1 | > 10000 | 
9 |  | 6.7 | CN1CCN(C[C@@H](NC(=O)C[C@H]2CNC(=O)c3cc(-c4cccc(F)c4)cn32)C2CCCCC2)CC1 | 490 | IC50 [1]: 150 nM
5 |  |  | CN1CCN(C[C@@H](NC(=O)C[C@H]2CNC(=O)c3cc(-c4cccc(Cl)c4)cn32)C(C)(C)C)CC1 |  | IC50 [1]: 262 nM
